Test results published in patent US5614370A, “Assay to identify human C5a antagonists and agonists” (Merck & Co., Inc., priority 1994, dated 1997).
Where two headings read alike, the source gives them in different places. Each block holds one molecule with its values, some of them ahead of it. Non-standard residues stand in square brackets, D forms with d. Residues, ends and D or L forms follow the SMILES beside them. Cha = N[C@@H](CC1CCCCC1)C(=O)O

Tests used:
C5a receptor [1] = target: T1, C5a receptor (Homo sapiens, UniProt P21730); type: binding; conditions: 293 cells present, FIG. 4A; PMN membranes
T1 construct: followed by a 20 μL aliquot of neutrophil membrane; endogenous in cells
T1 sequence (P21730 1-350): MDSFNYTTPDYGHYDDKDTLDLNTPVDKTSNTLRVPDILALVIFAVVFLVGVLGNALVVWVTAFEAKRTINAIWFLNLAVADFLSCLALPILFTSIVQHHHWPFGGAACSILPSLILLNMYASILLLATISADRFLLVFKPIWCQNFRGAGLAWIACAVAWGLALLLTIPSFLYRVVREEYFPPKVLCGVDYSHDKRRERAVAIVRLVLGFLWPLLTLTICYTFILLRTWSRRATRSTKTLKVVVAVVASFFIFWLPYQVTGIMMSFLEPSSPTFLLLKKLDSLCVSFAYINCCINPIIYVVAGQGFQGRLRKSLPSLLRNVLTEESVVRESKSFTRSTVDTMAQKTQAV
Text: FIGS. 4A, 4B and 4C. (A) Competition binding curve using ^125 I-labeled intact C5a and unlabeled C013 peptide in the presence and absence of protease secreting cells.
(B) Competition binding curve using ^125 I-labeled intact C5a and unlabeled C028 peptide in the presence and absence of protease secreting cells.
(C) Competition binding curve using ^125 I-labeled intact C5a and unlabeled C013 and C028 peptides in the presence and absence of protease secreting cells in the presence or absence of protease inhibitor.
We therefore attempted, and succeeded, to improve on this radioligand by identifying a compound with lower non-specific binding, and higher binding affinity. We developed the compound C013, ^125 I-Tyr Phe Lys Ala Cha Gly Leu dPhe Arg, SEQ.ID:2:, which had about 30-fold the binding affinity of ^125 I-C009.

C5a receptor [2] = conditions: cited from earlier work
C5a receptor [3] = conditions: literature; cited from earlier work

loss of potency in displacement of 125I-C5a in the presence of 293 cells (C5a receptor [1]): about 100 fold
Molecule: CC(C)C[C@H](NC(=O)CNC(=O)[C@H](CC1CCCCC1)NC(=O)[C@H](C)NC(=O)[C@H](CCCCN)NC(=O)[C@@H](N)Cc1ccccc1)C(=O)N[C@H](Cc1ccccc1)C(=O)N[C@@H](CCCNC(=N)N)C(=O)O [C013a] (H-FKA[Cha]GL[dF]R-OH)

Molecule: C-terminal C5a octapeptide: C-terminal C5a octapeptide which retained receptor binding activity (Kawai et al.) (HKDMQLGR; C5a anaphylatoxin; UniProt P01031 744-751, looked up, fragment)
C5a binding in words (C5a receptor [2]; literature): retained receptor binding activity

Molecule: natural C-terminus of C5a: synthetic peptide consisting of the C-terminal eight amino acids of C5a (HKDMQLGR; C5a anaphylatoxin; UniProt P01031 744-751, looked up, fragment) [reference compound]
agonist properties in words (C5a receptor [3]): has agonist properties | Ki (C5a receptor [2]; C-terminal eight residues of C5a, read-out: Ki, inhibition of C5a binding): 300 µM

B1: Phe for His67 substituted C5a peptide: Phe for His67 substituted C5a peptide (Mollison et al.) (peptide, UniProt P01031 678-751, looked up, variant H67F)
C5a anaphylatoxin: TLQKKIEEIAAKYKHSVVKKCCYDGACVNNDETCEQRAARISLGPRCIKAFTECCVVASQLRANISFKDMQLGR
modifications: C5a anaphylatoxin
Ki (C5a receptor [2]; literature, read-out: Ki for C5a binding): 0.26 µM
